In PMC9469100, “Turning Nonselective Inhibitors of Type I Protein Arginine Methyltransferases into Potent and Selective Inhibitors of Protein Arginine Methyltransferase 4 through a Deconstruction–Reconstruction and Fragment-Growing Approach” (Journal of Medicinal Chemistry, 2022):

Target: T1, SUV39H2 (Homo sapiens, UniProt Q9H5I1)
T1 construct: SUV39H2 (residues 46–410, C-terminus); N-terminal fusion protein with a C-terminal His-tag; His (C); purchased Reaction Biology Corporation
Assay: HotSpot KMT activity assay, SUV39H2
Type: biochemical
Settings: 1 µM; mean ± SD, two experiments; read-out: % enzyme residual activ. after treatment with 12h, 1 µM, SUV39H2
Procedure: Then, ^3H-SAM (final concentration 1 μM) was delivered into the reaction mixture to initiate the reaction. After incubation for 60 min at 30 °C, the reaction mixture was delivered to filter-paper for detection (as assessed by scintillation). […] No inhibitor control (DMSO) was considered as 100% enzyme activity. Data were analyzed using Excel and GraphPad Prism 6.0 software (GraphPad Software Inc., San Diego, CA). Values obtained for each compound are mean ± SD determined for two separate experiments.

T1 sequence (Q9H5I1 46-410): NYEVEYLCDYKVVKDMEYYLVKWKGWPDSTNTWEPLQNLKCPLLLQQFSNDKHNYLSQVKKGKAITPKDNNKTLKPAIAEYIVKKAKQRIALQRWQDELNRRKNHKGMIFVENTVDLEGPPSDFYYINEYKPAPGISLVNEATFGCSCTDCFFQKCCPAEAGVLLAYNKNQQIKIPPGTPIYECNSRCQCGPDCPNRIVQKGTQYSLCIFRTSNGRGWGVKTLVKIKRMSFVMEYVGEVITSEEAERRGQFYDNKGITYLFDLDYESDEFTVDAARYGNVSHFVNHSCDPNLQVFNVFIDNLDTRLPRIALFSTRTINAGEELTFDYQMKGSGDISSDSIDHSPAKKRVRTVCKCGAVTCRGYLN

Compound: COC(=O)c1cc(O)c2cc(NC(=O)NCCCCNC(=N)NC/C=C/[C@H]3O[C@@H](n4cnc5c(N)ncnc54)[C@H](O)[C@@H]3O)ccc2c1 [12h, Methyl 6-(3-(4-(3-((E)-3-((2R,3S,4R,5R)-5-(6-Amino-9H-purin-9-yl)-3,4-dihydroxytetrahydrofuran-2-yl)allyl)guanidino)butyl)ureido)-4-hydroxy-2-naphthoate]
- remaining activity at 1 µM: 114 ± 1.92%
